In US20240398757A1 (COCRYSTAL PHARMA, INC., priority 2022, published 2024) one finds IC50 data, which are given here for 44 compounds.

Where only a bound is given, the exact number is not on record here.

In this assay the target is T1, SARS2 protease (Severe acute respiratory syndrome coronavirus 2, UniProt P0DTD1).
T1 construct: SARS2 protease was added to a final concentration of 30 nM
Description: SARS-CoV-2 protease inhibition assay (SARS2 FRET protease assay). In kind it is biochemical. Conditions: IC50 (μM), SARS2 protease 30 nM, peptide substrate 1.3 μM, 120 minutes at 37° C., compounds 20 μM to 0.075 nM.

For `CCC[C@H](NC(=O)OC(c1ccccc1)C(F)(F)c1cccc(F)c1)C(=O)N[C@@H](C[C@@H]1CCNC1=O)C(=O)C(=O)NC1CC1` (some centres unmarked) [Compound A100], inhibition was half-maximal at 250 nM (IC50).

On to `CCC(=O)OC([C@H](C[C@@H]1CCNC1=O)NC(=O)[C@H](CC1CCCCC1)NC(=O)OC(c1ccccc1)C(F)(F)c1cccc(Cl)c1)S(=O)(=O)O` (some centres unmarked) [Compound A101], for which half-maximal inhibition (IC50) was put at 178 nM. As for `O=C[C@H](C[C@@H]1CCNC1=O)NC(=O)[C@H](CC1CCC1)NC(=O)OC(c1ccccc1)C(F)(F)c1cccc(Cl)c1` (some centres unmarked) [Compound A102], the midpoint of inhibition, the IC50, lay at 0.1 nM.

For the compound `O=C(N[C@@H](CC1CCCC1)C(=O)N[C@@H](C[C@@H]1CCNC1=O)C(=O)C(=O)NC1CC1)OC(c1ccccc1)C(F)(F)c1cccc(Cl)c1` (some centres unmarked) [Compound A103], the half-inhibitory concentration (IC50) (in general, the concentration that gives 50% inhibition) turned out to be 156 nM.

Consider `CCCC[C@H](NC(=O)OC(c1cccc(F)c1)C1(c2cccc(F)c2)CC1)C(=O)N[C@@H](C[C@@H]1CCNC1=O)C(=O)C(=O)NC1CC1` (some centres unmarked) [Compound A104], for which the IC50 stood at 309 nM. `CCCC[C@H](NC(=O)OC(c1cccc(F)c1)C1(c2cccc(Cl)c2)CC1)C(=O)N[C@@H](C[C@@H]1CCNC1=O)C(=O)C(=O)NC1CC1` (some centres unmarked) [Compound A105] came in with a half-inhibitory concentration (IC50) of 510 nM. In turn, `CCCC[C@H](NC(=O)OC(c1cccc(F)c1)C(F)(F)c1cccc(Cl)c1)C(=O)N[C@@H](C[C@@H]1CCNC1=O)C(=O)C(=O)NC1CC1` (some centres unmarked) [Compound A106] came in with a half-inhibitory concentration (IC50) of 170 nM.

As to `CCCC[C@H](NC(=O)O[C@@H](c1ccccc1)C(F)(F)c1cccc(Cl)c1)C(=O)N[C@H](C=O)C[C@@H]1CCNC1=O` [Compound A107, (S)-2-(3-chlorophenyl)-2,2-difluoro-1-phenylethyl ((S)-1-oxo-1-(((S)-1-oxo-3-((S)-2-oxopyrrolidin-3-yl)propan-2-yl)amino)hexan-2-yl)carbamate], the IC50 came out at 1 nM. For `CCC[C@H](NC(=O)OC(c1ccccc1)C(F)(F)c1cccc(Cl)c1)C(=O)N[C@@H](C[C@@H]1CCNC1=O)C(=O)C(=O)NC1CC1` (some centres unmarked) [Compound A109], half-maximal inhibition (IC50) required 170 nM. In turn, `CCCC[C@H](NC(=O)O[C@H](c1ccccc1)C(F)(F)c1cccc(Cl)c1)C(=O)N[C@H](C=O)C[C@@H]1CCNC1=O` [Compound A110, (R)-2-(3-chlorophenyl)-2,2-difluoro-1-phenylethyl ((S)-1-oxo-1-(((S)-1-oxo-3-((S)-2-oxopyrrolidin-3-yl)propan-2-yl)amino)hexan-2-yl)carbamate] had a 50% inhibitory concentration (IC50) of 0.2 nM. As for `CCCC[C@H](NC(=O)O[C@H](c1ccccc1)C(F)(F)c1cccc(Cl)c1)C(=O)N[C@@H](C[C@@H]1CCNC1=O)C(O)S(=O)(=O)O` (some centres unmarked) [Compound A111], the IC50 was 2.8 nM. With `CCCC[C@H](NC(=O)OC(c1ccccc1)C(F)(F)c1cccc(Cl)c1)C(=O)N[C@H](C=O)CC1CC(C)NC1=O` (some centres unmarked) [Compound A112] the figure was 179 nM. Compound `CCCC(=O)OC([C@H](C[C@@H]1CCNC1=O)NC(=O)[C@H](CC1CCCCC1)NC(=O)OC(c1ccccc1)C(F)(F)c1cccc(Cl)c1)S(=O)(=O)O` (some centres unmarked) [Compound A113] showed an IC50 of 241 nM. `CCCC[C@H](NC(=O)OC(c1ccccc1)C(F)(F)c1cccc(Cl)c1)C(=O)N[C@H](C=O)C[C@@H]1CCCNC1=O` (some centres unmarked) [Compound A114] registered a half-maximal inhibitory concentration (IC50) of 0.3 nM. Turning to `CCCC[C@H](NC(=O)O[C@@H](c1ccccc1)C(F)(F)c1cccc(Cl)c1)C(=O)N[C@@H](C[C@@H]1CCNC1=O)C(=O)C(=O)NC1CC1` [Compound A115], the IC50 is 805 nM.

In turn, `O=C(N[C@@H](CC1CCCCC1)C(=O)N[C@@H](C[C@@H]1CCNC1=O)C(=O)C(=O)NC1CC1)O[C@@H](c1ccccc1)C(F)(F)c1cccc(Cl)c1` [Compound A116] had a 50% inhibitory concentration (IC50) of 28.9 nM. With `CCNC(=O)C(=O)[C@H](C[C@@H]1CCNC1=O)NC(=O)[C@H](CC1CCCC1)NC(=O)OC(c1ccccc1)C(F)(F)c1cccc(Cl)c1` (stereo partly drawn) [Compound A117, 2-(3-chlorophenyl)-2,2-difluoro-1-phenylethyl ((S)-3-cyclopentyl-1-(((S)-4-(ethylamino)-3,4-dioxo-1-((S)-2-oxopyrrolidin-3-yl)butan-2-yl)amino)-1-oxopropan-2-yl)carbamate] the figure was 2.8 nM. In turn, `CCNC(=O)C(=O)[C@H](C[C@@H]1CCNC1=O)NC(=O)[C@H](CC1CCCCC1)NC(=O)O[C@@H](c1ccccc1)C(F)(F)c1cccc(Cl)c1` [Compound A120] had a 50% inhibitory concentration (IC50) of less than 0.01 nM. For the compound `CCCC[C@H](NC(=O)O[C@@H](c1ccccc1)C(F)(F)c1cccc(Cl)c1)C(=O)N[C@@H](C[C@@H]1CCNC1=O)C(O)S(=O)(=O)O` (some centres unmarked) [Compound A121], the IC50 was 18 nM. As to `CCCC[C@H](NC(=O)O[C@@H](c1ccccc1)C(C)(C)c1cccc(Cl)c1)C(=O)N[C@H](C=O)C[C@H]1CCNC1=O` [Compound A122, (S)-2-(3-Chlorophenyl)-2-methyl-1-phenylpropyl ((S)-1-oxo-1-(((S)-1-oxo-3-((R)-2-oxopyrrolidin-3-yl)propan-2-yl)amino)hexan-2-yl)carbamate], the IC50 is less than 0.1 nM.

`CCCC[C@H](NC(=O)O[C@H](c1ccccc1)C(C)(C)c1cccc(Cl)c1)C(=O)N[C@H](C=O)C[C@H]1CCNC1=O` [Compound A123]: the IC50 was 5300 nM.

In turn, `O=C[C@H](C[C@@H]1CCCNC1=O)NC(=O)[C@H](CC1CCCCC1)NC(=O)OC(c1ccccc1)C(F)(F)c1cccc(Cl)c1` (some centres unmarked) [Compound A124] had a 50% inhibitory concentration (IC50) of 0.1 nM. In turn, `O=C[C@H](C[C@@H]1CCNC1=O)NC(=O)[C@H](CC1CCCCC1)NC(=O)O[C@@H](c1ccccc1)C(F)(F)c1cccc(Cl)c1` [Compound A125] had an IC50 of 4.2 nM. `O=C[C@H](C[C@@H]1CCNC1=O)NC(=O)[C@H](CC1CCCCC1)NC(=O)O[C@@H](c1ccccc1)C(F)(F)c1cccc(F)c1` [Compound A126]: the IC50 is less than 0.01 nM.

In turn, `CCCC[C@H](NC(=O)OC(c1ccccc1)C(F)(F)c1cccc(Cl)c1)C(=O)N[C@@H](C[C@@H]1CCCNC1=O)C(=O)C(=O)NC1CC1` (some centres unmarked) [Compound A127] gave a concentration for half-maximal inhibition (IC50) of 10 nM. Consider `CCOC(=O)/C=C/[C@H](C[C@@H]1CCNC1=O)NC(=O)[C@H](CC(C)C)NC(=O)OC(c1ccccc1)C(F)(F)c1cccc(Cl)c1` (some centres unmarked) [Compound A128], for which the 50% inhibitory concentration (IC50) was found to be 3950 nM. As for `O=C(N[C@@H](CC1CCCCC1)C(=O)N[C@@H](C[C@@H]1CCCNC1=O)C(=O)C(=O)NC1CC1)OC(c1ccccc1)C(F)(F)c1cccc(Cl)c1` (some centres unmarked) [Compound A129], the midpoint of inhibition, the IC50, lay at 130 nM. As to `CCNC(=O)C(=O)[C@H](C[C@@H]1CCNC1=O)NC(=O)[C@H](CC1CCCCC1)NC(=O)OC(c1ccccc1)C(C)(C)c1cccc(F)c1` (some centres unmarked) [Compound A130], the midpoint of inhibition, the IC50, lay at 88 nM. In turn, `CCNC(=O)C(=O)[C@H](C[C@@H]1CCNC1=O)NC(=O)[C@H](CC1CC1)NC(=O)OC(c1ccccc1)C(F)(F)c1cccc(Cl)c1` (some centres unmarked) [Compound A131] showed an IC50 of 0.2 nM. The figure for `CCNC(=O)C(=O)[C@H](C[C@@H]1CCNC1=O)NC(=O)[C@H](CC1CCC1)NC(=O)OC(c1ccccc1)C(F)(F)c1cccc(Cl)c1` (some centres unmarked) [Compound A132] is 66 nM; for `O=C(N[C@@H](CC1CCCCC1)C(=O)N[C@@H](C[C@@H]1CCNC1=O)C(O)S(=O)(=O)O)O[C@@H](c1ccccc1)C(F)(F)c1cccc(F)c1` (some centres unmarked) [Compound A133] it is 2 nM; for `CCNC(=O)C(=O)[C@H](C[C@@H]1CCNC1=O)NC(=O)[C@H](CC1CCCCC1)NC(=O)O[C@H](c1ccccc1)C(F)(F)c1cccc(Cl)c1` [Compound A134] it is 1180 nM. The figure for `O=C(N[C@@H](CC1CCCCC1)C(=O)N[C@@H](C[C@@H]1CCNC1=O)C(O)S(=O)(=O)O)O[C@H](c1ccccc1)C(F)(F)c1cccc(Cl)c1` (some centres unmarked) [Compound A135] is 2.2 nM; for `CCCC[C@H](NC(=O)OC(c1ccccc1)C1(c2cccc(Cl)c2)CC1)C(=O)N[C@@H](C[C@@H]1CCNC1=O)C(=O)C(=O)NC1CC1` (some centres unmarked) [Compound A136] it is 83 nM; for `CCCC[C@H](NC(=O)O[C@H](c1ccccc1)C(F)(F)c1cccc(Cl)c1)C(=O)N[C@@H](C[C@@H]1CCNC1=O)C(=O)C(=O)NC1CC1` [Compound A137] it is 0.5 nM. On to `CCCC[C@H](NC(=O)OC(c1ccccc1)C(F)(F)c1cccc(Cl)c1)C(=O)N[C@@H](C[C@@H]1CCNC1=O)C(=O)C(=O)NCC` (some centres unmarked) [Compound A138], for which the IC50 stood at 28 nM. Compound `CC(C)C[C@H](NC(=O)O[C@@H](c1cccc(Cl)c1)C(C)(C)c1cccc(Cl)c1)C(=O)N[C@H](C=O)C[C@@H]1CCNC1=O` [Compound A139] came in with a half-inhibitory concentration (IC50) of 3 nM.

As to `CC(C)C[C@H](NC(=O)O[C@H](c1cccc(Cl)c1)C(C)(C)c1cccc(Cl)c1)C(=O)N[C@H](C=O)C[C@@H]1CCNC1=O` [Compound A140], 45 nM corresponded to half-maximal inhibition (IC50). Consider `O=C(N[C@@H](CC1CCCCC1)C(=O)N[C@@H](C[C@@H]1CCNC1=O)C(O)S(=O)(=O)O)O[C@@H](c1ccccc1)C(F)(F)c1cccc(Cl)c1` (stereo partly drawn) [Compound A141, sodium (2S)-2-((S)-2-((((S)-2-(3-chlorophenyl)-2,2-difluoro-1-phenylethoxy)carbonyl)amino)-3-cyclohexylpropanamido)-1-hydroxy-3-((S)-2-oxopyrrolidin-3-yl)propane-1-sulfonate], for which the 50% inhibitory concentration (IC50) was determined as 55 nM.

`CC(C)C[C@H](NC(=O)O[C@@H](c1cccc(Cl)c1)C(C)(C)c1cccc(Cl)c1)C(=O)N[C@@H](C[C@@H]1CCNC1=O)C(=O)C(=O)NC1CC1` [Compound A142] registered an IC50 of 32 nM. The figure for `CCCC[C@H](NC(=O)O[C@@H](c1ccccc1)C(F)(F)c1cccc(F)c1)C(=O)N[C@H](C=O)C[C@@H]1CCNC1=O` [Compound A143] is 4 nM. On to `CCCC[C@H](NC(=O)O[C@H](c1ccccc1)C(F)(F)c1cccc(F)c1)C(=O)N[C@H](C=O)C[C@@H]1CCNC1=O` [Compound A144], for which the IC50 was found to be 23 nM. As for `CCC[C@H](NC(=O)OC(c1ccccc1)C(F)(F)c1cccc(Cl)c1)C(=O)N[C@@H](C[C@@H]1CCNC1=O)C(=O)C(=O)NCC` (some centres unmarked) [Compound A145], the IC50 came to 150 nM. With `CCCC[C@H](NC(=O)O[C@H](c1ccccc1)C(F)(F)c1cccc(Cl)c1)C(=O)N[C@H](C=O)C[C@@H]1CCCNC1=O` [Compound A146] the figure was 38 nM.
